Assay results from publication PMC6529423, “The extracellular gate shapes the energy profile of an ABC exporter” (Nature Communications, 2019).

Target: T1, EfrEF (Enterococcus faecalis, UniProt Q832J9+Q832K0)
T1 construct: gene EF_2226; heterodimeric ABC exporter, expressed in Lactococcus lactis NZ9000 from pNZ8048NH3, purified in DDM, reconstituted in proteoliposomes
Assay: ATPase stimulation in proteoliposomes; also ethidium efflux from L. lactis cells
Type: biochemical
Conditions: 1 mM ATP, 10 mM MgSO4, 50 mM HEPES pH 7.0, 30 °C; stimulator of ATPase

T1 sequence (Q832K0 entry or part of it): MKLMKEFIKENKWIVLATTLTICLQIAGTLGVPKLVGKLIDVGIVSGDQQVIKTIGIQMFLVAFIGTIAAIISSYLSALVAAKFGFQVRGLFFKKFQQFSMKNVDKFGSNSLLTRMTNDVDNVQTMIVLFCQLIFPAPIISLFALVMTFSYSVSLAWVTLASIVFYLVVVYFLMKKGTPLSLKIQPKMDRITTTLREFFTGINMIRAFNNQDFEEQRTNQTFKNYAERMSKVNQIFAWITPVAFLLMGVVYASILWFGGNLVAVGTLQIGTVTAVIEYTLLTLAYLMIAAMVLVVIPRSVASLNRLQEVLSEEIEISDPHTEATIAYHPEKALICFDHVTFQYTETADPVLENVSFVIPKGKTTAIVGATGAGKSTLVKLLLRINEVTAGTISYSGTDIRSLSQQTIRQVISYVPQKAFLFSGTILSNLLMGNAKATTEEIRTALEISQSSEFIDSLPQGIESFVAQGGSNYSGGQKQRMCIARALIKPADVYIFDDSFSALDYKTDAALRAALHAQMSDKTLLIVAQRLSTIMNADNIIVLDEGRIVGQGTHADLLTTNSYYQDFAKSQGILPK
T1 sequence (Q832J9 entry or part of it): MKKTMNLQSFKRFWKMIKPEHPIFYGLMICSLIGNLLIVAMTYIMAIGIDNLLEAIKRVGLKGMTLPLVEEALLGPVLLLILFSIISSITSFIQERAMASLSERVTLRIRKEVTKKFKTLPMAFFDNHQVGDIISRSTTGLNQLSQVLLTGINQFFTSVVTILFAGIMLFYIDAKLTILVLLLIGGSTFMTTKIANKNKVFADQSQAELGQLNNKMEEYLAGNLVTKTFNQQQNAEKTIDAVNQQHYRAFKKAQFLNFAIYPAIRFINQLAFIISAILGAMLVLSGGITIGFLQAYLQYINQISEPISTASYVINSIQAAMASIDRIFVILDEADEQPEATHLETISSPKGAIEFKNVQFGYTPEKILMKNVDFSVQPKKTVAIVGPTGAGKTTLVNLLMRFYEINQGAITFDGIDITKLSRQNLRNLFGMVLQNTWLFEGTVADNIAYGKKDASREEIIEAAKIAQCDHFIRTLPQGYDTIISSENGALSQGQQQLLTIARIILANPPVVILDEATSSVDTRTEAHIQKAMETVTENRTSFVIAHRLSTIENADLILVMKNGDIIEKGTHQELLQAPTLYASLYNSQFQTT

In the case of `CC[n+]1c(-c2ccccc2)c2cc(N)ccc2c2ccc(N)cc21` [ethidium], the “ATPase stimulation in proteoliposomes; also ethidium efflux from L. lactis cells” value is reported as “Wild-type EfrEF efficiently expels ethidium from the cell”.
